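48-hour exposure; five concentrations; linearly interpolated endpoints. GI50 is the concentration that inhibits growth by half.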 Calls of active or inactive are those of the source. Cut-off read from the data, not from the text of the source: active = GI50 up to about 1.1 µM and inactive = higher.
Experiments:
Test in all cases: inhibition of tumour cell growth, NCI panel, 48 h
A549 = test system: A549
CAKI-1 = test system: CAKI-1
EKVX = test system: EKVX
HCT-15 = test system: HCT-15
HL-60 = test system: HL-60
HT-29 = test system: HT-29
IGROV-1 = test system: IGROV-1
LOX IMVI = test system: LOX IMVI
OVCAR-4 = test system: OVCAR-4
OVCAR-8 = test system: OVCAR-8
RPMI-8226 = test system: RPMI-8226
RXF 393 = test system: RXF 393
SF-268 = test system: SF-268
SK-MEL-28 = test system: SK-MEL-28
SK-OV-3 = test system: SK-OV-3
SNB-19 = test system: SNB-19
SNB-75 = test system: SNB-75
SNB-78 = test system: SNB-78
UACC-257 = test system: UACC-257
M14 = test system: M14

| SMILES | GI50 (A549) | GI50 (CAKI-1) | GI50 (EKVX) | GI50 (HCT-15) [µM] | GI50 (HL-60) | GI50 (HT-29) | GI50 (IGROV-1) | GI50 (LOX IMVI) | GI50 (OVCAR-4) | GI50 (OVCAR-8) | GI50 (RPMI-8226) | GI50 (RXF 393) | GI50 (SF-268) | GI50 (SK-MEL-28) | GI50 (SK-OV-3) | GI50 (SNB-19) | GI50 (SNB-75) | GI50 (SNB-78) | GI50 (UACC-257) | GI50 (M14) |
| --- | --- | --- | --- | --- | --- | --- | --- | --- | --- | --- | --- | --- | --- | --- | --- | --- | --- | --- | --- | --- |
| CC(C)=CCC/C(C)=C/CCC1(C)C=Cc2c(c3ccccc3oc2=O)O1 (stereo not given) | 17.5 µM (inactive) | 17.2 µM (inactive) | 18.5 µM (inactive) | 16 | 23.8 µM (inactive) | 18.8 µM (inactive) | 16.4 µM (inactive) | 18 µM (inactive) | 14.5 µM (inactive) | 16.7 µM (inactive) | 18.2 µM (inactive) | 3.71 µM (inactive) | 20.6 µM (inactive) | 16.1 µM (inactive) | 27.3 µM (inactive) | 20.5 µM (inactive) | 13.4 µM (inactive) | > 56.2 µM (inactive) | 17.1 µM (inactive) |  |
| CSc1cc(-c2cc3ccccc3o2)oc(=O)c1C#N | > 100 µM (inactive) | 8.13 µM (inactive) | > 100 µM (inactive) | > 100 | 18.9 µM (inactive) | > 100 µM (inactive) | 7.4 µM (inactive) | > 100 µM (inactive) | > 100 µM (inactive) | > 100 µM (inactive) | 27.7 µM (inactive) | 71.4 µM (inactive) | > 100 µM (inactive) | > 100 µM (inactive) |  | 68.9 µM (inactive) | 16.3 µM (inactive) | 88.1 µM (inactive) | > 100 µM (inactive) | > 100 µM (inactive) |
| O=C1Sc2ccccc2/C1=N/Nc1ccccc1[N+](=O)[O-] | > 100 µM (inactive) | 77.3 µM (inactive) | > 100 µM (inactive) | > 100 | > 100 µM (inactive) | > 100 µM (inactive) | > 100 µM (inactive) | > 100 µM (inactive) | 36.1 µM (inactive) | 56.4 µM (inactive) | > 100 µM (inactive) |  | 36.6 µM (inactive) | > 100 µM (inactive) | 86.9 µM (inactive) | > 100 µM (inactive) | 0.281 µM (active) |  | > 100 µM (inactive) | > 100 µM (inactive) |
| COc1cc2c(cc1OC)-c1cc3ccccc3c[n+]1CC2 | > 100 µM (inactive) | > 100 µM (inactive) | > 100 µM (inactive) |  |  | > 100 µM (inactive) | > 100 µM (inactive) | > 100 µM (inactive) | > 100 µM (inactive) | > 100 µM (inactive) | 36.6 µM (inactive) | > 100 µM (inactive) | 27.5 µM (inactive) | > 100 µM (inactive) | > 100 µM (inactive) | > 100 µM (inactive) | > 100 µM (inactive) |  | 89.5 µM (inactive) | > 100 µM (inactive) |
| C=C(C)C(=O)O[C@H]1CC2=C[C@@H](C[C@@]3(C)O[C@@H]3[C@H]3OC(=O)C(=C)[C@@H]31)OC2=O [ELEPHANTOPIN] | 7.33 µM (inactive) | 1.86 µM (inactive) | 2.08 µM (inactive) | 0.927 | 0.486 µM (active) | 2.48 µM (inactive) | 4.65 µM (inactive) | 0.31 µM (active) | 2.61 µM (inactive) | 0.505 µM (active) |  | 0.369 µM (active) | 0.818 µM (active) | 1.71 µM (inactive) | 11.5 µM (inactive) | 13.3 µM (inactive) | 7.98 µM (inactive) | 2.09 µM (inactive) | 1.85 µM (inactive) |  |
| COC1=C2CC(C)CC(OC)C(O)C(C)/C=C(\C)C(OC(N)=O)C(OC)/C=C\C=C(/C)C(=O)NC(=C(/C=N/C(C)(C)C)C1=O)C2=O (stereo not given) | 2.47 µM (inactive) | 3.08 µM (inactive) | 3.64 µM (inactive) | 6.28 | 0.479 µM (active) | 3.19 µM (inactive) | 13.1 µM (inactive) | 4.41 µM (inactive) | 1.71 µM (inactive) | 5 µM (inactive) | 0.946 µM (active) | 0.351 µM (active) | 6.3 µM (inactive) | 4.97 µM (inactive) | 24.7 µM (inactive) | 4.85 µM (inactive) | 0.767 µM (active) | 13.9 µM (inactive) | 2.55 µM (inactive) |  |
| O=C1CNc2cc(N3CCCCC3)ccc2N1 | > 100 µM (inactive) |  | 21.2 µM (inactive) | > 100 | > 100 µM (inactive) | 8.32 µM (inactive) | 13.9 µM (inactive) |  | > 100 µM (inactive) | > 100 µM (inactive) | > 100 µM (inactive) |  |  | > 100 µM (inactive) | > 100 µM (inactive) | > 100 µM (inactive) | 66.2 µM (inactive) |  | > 100 µM (inactive) | 66.1 µM (inactive) |
| c1ccc(CCn2cncn2)cc1 | > 100 µM (inactive) |  | > 100 µM (inactive) | > 100 | > 100 µM (inactive) | > 100 µM (inactive) | > 100 µM (inactive) |  | > 100 µM (inactive) |  |  |  | > 100 µM (inactive) | > 100 µM (inactive) | > 100 µM (inactive) | > 100 µM (inactive) | > 100 µM (inactive) | > 100 µM (inactive) | > 100 µM (inactive) | > 100 µM (inactive) |
